# Experimental data: US20060046966A1, “Antipicornaviral compounds and compositions, their pharmaceutical uses, and materials for their synthesis” (Agouron Pharmaceuticals, Inc., priority 1998, published 2006)
# Key:
# HRV (2) = test: Antirhinoviral H1-HeLa cell culture assay, HRV serotype 2; assay type: cell-based, human rhinovirus; conditions: Human rhinovirus sp., H1-HeLa, H1-HeLa cells, XTT
# Procedure: (§1) In this cell protection assay, the ability of compounds to protect cells against HRV infection was measured by the XTT dye reduction method, which is described in Weislow et al., J. Natl. Cancer Inst. 1989, vol. 81, 577-586.
# (§2) H1-HeLa cells were infected with HRV-14 at a multiplicity of infection (m.o.i.) of 0.13 (virus particles/cell) or mock-infected with medium only. Infected or mock-infected cells were resuspended at 8×10^5 cells per mL, and incubated with appropriate concentrations of the compounds to be tested. Two days later, XTT/PMS was added to test plates and the amount of formazan produced was quantified spectrophotometrically at 450/650 nm. The EC50 value was calculated as the concentration of compound that increased the percentage of formazan production in compound-treated, virus-infected cells to 50% of that produced by compound-free, mock-infected cells. The 50% cytotoxic dose (CC50) was calculated as the concentration of compound that decreased the percentage of formazan produced in compound-treated, mock-infected cells to 50% of that produced by compound-free, mock-infected cells. The therapeutic index (TI) was calculated by dividing the CC50 value by the EC50 value.
# (§3) All strains of human rhinovirus (HRV) for use in this assay were purchased from American Type Culture Collection (ATCC), except for HRV serotype-14 (produced from the infectious cDNA clone constructed by Dr. Robert Rueckert, Institute for Molecular Virology, University of Wisconsin, Madison, Wis.). HRV stocks were propagated and viral assays were performed in H1-HeLa cells (ATCC). Cells were grown in minimal essential medium with 10% fetal bovine serum, available from Life Technologies (Gaithersburg, Md.).
# (§4) The compounds were tested against control compounds WIN 51711, WIN 52084, and WIN 54954 (obtained from Sterling-Winthrop Pharmaceuticals), Pirodavir (obtained from Janssen Pharmaceuticals), and Pleconaril (prepared according to the method described in Diana et al., J. Med. Chem 1995, vol. 38, 1355). Antiviral data obtained for the test compounds are shown in Tables 1 and 3, where all data are for HRV serotype-14 unless otherwise noted in parentheses.
# HRV (1A) = test: Antirhinoviral H1-HeLa cell culture assay, HRV serotype 1A; assay type: cell-based; conditions: Human rhinovirus sp., H1-HeLa cells, XTT
# Procedure: as §1, §2, §3, §4
# HRV (16) = test: Antirhinoviral H1-HeLa cell culture assay, HRV serotype 16; assay type: cell-based; conditions: Human rhinovirus sp., H1-HeLa cells, XTT
# Procedure: as §1, §2, §3
# (§5) The compounds were tested against control compounds WIN 51711, WIN 52084, and WIN 54954 (obtained from Sterling-Winthrop Pharmaceuticals), Pirodavir (obtained from Janssen Pharmaceuticals), and Pleconaril (prepared according to the method described in Diana et al., J. Med. Chem 1995, vol. 38, 1355). […]
# HRV (39) = test: Antirhinoviral H1-HeLa cell culture assay, HRV serotype 39; assay type: cell-based, human rhinovirus; conditions: Human rhinovirus sp., H1-HeLa cells, XTT
# Procedure: as §1, §2, §3, §5
# HRV (9) = test: Antirhinoviral H1-HeLa cell culture assay, HRV serotype 9; assay type: cell-based, human rhinovirus; conditions: Human rhinovirus sp., H1-HeLa cells, XTT
# Procedure: as §1, §2, §3, §5
# HRV (17) = test: Antirhinoviral H1-HeLa cell culture assay, HRV serotype 17; assay type: cell-based, human rhinovirus; conditions: Human rhinovirus sp., H1-HeLa cells, XTT
# Procedure: as §1, §2, §3, §5
# HRV (25) = test: Antirhinoviral H1-HeLa cell culture assay, HRV serotype 25; assay type: cell-based; conditions: Human rhinovirus sp., H1-HeLa cells, XTT
# Procedure: as §1
# as §2, with “value. […]” for “value.”
# HRV (30) = test: Antirhinoviral H1-HeLa cell culture assay, HRV serotype 30; assay type: cell-based; conditions: Human rhinovirus sp., H1-HeLa cells, XTT
# Procedure: as §1
# as §2, with “value. […]” for “value.”
# HRV (38) = test: Antirhinoviral H1-HeLa cell culture assay, HRV serotype 38; assay type: cell-based; conditions: Human rhinovirus sp., H1-HeLa cells, XTT
# Procedure: as §1
# as §2, with “value. […]” for “value.”
# HRV (87) = test: Antirhinoviral H1-HeLa cell culture assay, HRV serotype 87; assay type: cell-based; conditions: Human rhinovirus sp., H1-HeLa cells, XTT
# Procedure: as §1
# as §2, with “value. […]” for “value.”
# [1] = tested on: Echovirus type 11 (EV 11); test: Anti-echoviral cell culture assay, EV 11; assay type: cell-based; conditions: Enterovirus B, MRC5, 96 h; Strain EV-11; MRC-5 cells; four days; XTT; read-out: EC50
# Procedure: Echovirus type 11 (EV 11) and enterovirus type 70 (EV 70) were purchased from ATCC (Rockville, Md.). Virus stocks were propagated and antiviral assays were performed in MRC-5 cells (ATCC). Cells were grown in minimal essential medium with 10% fetal bovine serum (Life Technologies, Gaithersburg, Md.).
# The ability of compounds to protect cells against either EV 11 or EV 70 infection was measured by the XTT dye reduction method (Weislow et al., J. Natl. Cancer Inst. 1989, vol. 81, 577-586). MRC-5 cells were infected with EV 11 or EV 70 at an m.o.i. of 0.003 or 0.004, respectively, or mock-infected with medium only. Infected or uninfected cells were added at 1×10^4 cells per well and incubated with appropriate concentrations of compound. Four days later, XTT/PMS was added to test plates, and the amount of formazan produced was quantified spectrophotometrically at 450/650 nm. The EC50 was calculated as the concentration of compound that increased the formazan production in compound-treated, virus-infected cells to 50% of that produced by compound-free, uninfected cells. The 50% cytotoxic dose (CC50) was calculated as the concentration of compound that decreased formazan production in compound-treated, uninfected cells to 50% of that produced in compound-free, uninfected cells. The therapeutic index (TI) was calculated by dividing the CC50 by the EC50.
# The compounds were tested against control compounds Pirodavir (obtained from Janssen Pharmaceuticals) and Pleconaril (prepared according to Diana et al., J. Med. Chem. 1995, vol. 38, 1355). Antiviral data obtained for the test compounds against strain EV 11 and EV 70 are shown below in Table 5.
structure (smiles),measurement,setting,value
"CCOC(=O)/C=C/[C@H](C[C@@H]1CCNC1=O)NC(=O)[C@@H](CC(=O)[C@@H](NC(=O)c1cc(C)on1)C(C)C)Cc1ccc(F)cc1 [Compound B-2, Ethyl-3-{(5′-Methylisoxazole-3′-carbonyl)-L-ValΨ(COCH2)-L-(4-F-Phe)-L-((S)-Pyrrol-Ala)}-E-Propenoate]",EC50,HRV (2),20 nM
same,EC50,HRV (1A),20 nM
same,EC50,HRV (16),10 nM
same,EC50,HRV (39),50 nM
same,EC50,HRV (9),6 nM
same,EC50,HRV (17),10 nM
same,EC50,HRV (25),30 nM
same,EC50,HRV (30),40 nM
same,EC50,HRV (38),70 nM
same,EC50,HRV (87),60 nM
same,EC50,[1],10 nM
